Measurements reported in ChEMBL document CHEMBL3046716, “Design of potent human steroid 5-reductase inhibitors: 3D-QSAR CoMFA, CoMSIA and docking studies” (Med Chem Res, 2013).

What was measured:
Homo sapiens [1] = organism: Homo sapiens; test: Ratio of compound IC50 to (4aR,4bS,6aS,7S,9aS,9bS,11aR)-N,N-diethyl-1,4a,6a-trimethyl-2-oxohexadecahydro-1H-indeno[5,4-f]quinoline-7-carboxamide IC50 for human steroid 5alpha-reductase
Homo sapiens [2] = organism: Homo sapiens; test: Ratio of compound pIC50 to (4aR,4bS,6aS,7S,9aS,9bS,11aR)-N,N-diethyl-1,4a,6a-trimethyl-2-oxohexadecahydro-1H-indeno[5,4-f]quinoline-7-carboxamide pIC50 for human steroid 5alpha-reductase

| Compound | Ratio IC50 (Homo sapiens [1]) | pIC50 (Homo sapiens [2]) |
| --- | --- | --- |
| C[C@]12CCC(=O)N[C@@H]1CC[C@@H]1[C@@H]2CC[C@@]2(C)[C@H]1CC[C@@]21CCCO1 | 735 | 5.13 |
| CCCCCCCNC(=O)[C@H]1CC[C@H]2[C@@H]3CC[C@H]4NC(=O)CC[C@]4(C)[C@H]3CC[C@]12C | 2.4 | 7.62 |
| CN1C(=O)CC[C@]2(C)[C@H]3CC[C@]4(C)[C@@H](C(=O)NC(C)(C)C)CC[C@H]4[C@@H]3CC[C@@H]12 | 1.1 | 7.96 |
| CC(C)(C)NC(=O)[C@H]1CC[C@H]2[C@@H]3CC[C@H]4NC(=O)CC[C@]4(C)[C@H]3CC[C@]12C | 1.7 | 7.77 |
| COC(=O)[C@H](C)[C@H]1CC[C@H]2[C@@H]3CC[C@H]4N(C)C(=O)CC[C@]4(C)[C@H]3CC[C@]12C | 143 | 5.84 |
| C[C@]12CCC(=O)N[C@@H]1CC[C@@H]1[C@@H]2CC[C@]2(C)[C@@H](C(N)=O)CC[C@@H]12 | 150 | 5.82 |
| COC(CNC(=O)[C@H]1CC[C@H]2[C@@H]3CC[C@H]4NC(=O)CC[C@]4(C)[C@H]3CC[C@]12C)OC | 20 | 6.7 |
| C[C@]12CCC(=O)N[C@@H]1CC[C@@H]1[C@@H]2CC[C@]2(C)[C@@H](C(=O)c3ccco3)CC[C@@H]12 | 3.6 | 7.44 |
| CC(C)N(C(=O)[C@H]1CC[C@H]2[C@@H]3CC[C@H]4NC(=O)CC[C@]4(C)[C@H]3CC[C@]12C)C(C)C | 1.5 | 7.82 |
| CC(C)(C)OC(=O)[C@H]1CC[C@H]2[C@@H]3CC[C@H]4NC(=O)CC[C@]4(C)[C@H]3CC[C@]12C | 8.6 | 7.07 |
| CN1C(=O)CC[C@]2(C)[C@H]3CC[C@]4(C)[C@@H](C#N)CC[C@H]4[C@@H]3CC[C@@H]12 | 83 | 6.08 |
| CC(C)CC(=O)[C@H]1CC[C@H]2[C@@H]3CC[C@H]4NC(=O)CC[C@]4(C)[C@H]3CC[C@]12C | 4.2 | 7.38 |
| CN1C(=O)CC[C@]2(C)[C@H]3CC[C@]4(C)[C@@H](C5=NC(C)(C)CO5)CC[C@H]4[C@@H]3CC[C@@H]12 | 125 | 5.9 |
| CN1C(=O)CC[C@]2(C)[C@H]3CC[C@@]4(C)[C@@H](CC[C@@]45CCCO5)[C@@H]3CC[C@@H]12 | 144 | 5.84 |
| CCCCCCCNC(=O)[C@H]1CC[C@H]2[C@@H]3CC[C@H]4N(C)C(=O)CC[C@]4(C)[C@H]3CC[C@]12C | 4 | 7.4 |
| CN1C(=O)CC[C@]2(C)[C@H]3CC[C@]4(C)[C@@H](C(=O)c5ccco5)CC[C@H]4[C@@H]3CC[C@@H]12 | 2 | 7.7 |
| CN1C(=O)CC[C@]2(C)[C@H]3CC[C@]4(C)[C@@H](C5=NCCO5)CC[C@H]4[C@@H]3CC[C@@H]12 | 11 | 6.96 |
| CC(O)[C@H]1CC[C@H]2[C@@H]3CC[C@H]4N(C)C(=O)CC[C@]4(C)[C@H]3CC[C@]12C (stereo not given in full) | 17 | 6.77 |
| CCOC(=O)C[C@H]1CC[C@H]2[C@@H]3CC[C@H]4N(C)C(=O)CC[C@]4(C)[C@H]3CC[C@]12C | 29 | 6.54 |
| CN1C(=O)CC[C@]2(C)[C@H]3CC[C@]4(C)[C@@H](C(=O)NC(C)(C)CC(C)(C)C)CC[C@H]4[C@@H]3CC[C@@H]12 | 0.52 | 8.28 |
| CC(C)(C)CC(C)(C)NC(=O)[C@H]1CC[C@H]2[C@@H]3CC[C@H]4NC(=O)CC[C@]4(C)[C@H]3CC[C@]12C | 0.56 | 8.25 |
| C[C@H](CO)[C@H]1CC[C@H]2[C@@H]3CC[C@H]4N(C)C(=O)CC[C@]4(C)[C@H]3CC[C@]12C | 15 | 6.82 |
| CN1C(=O)CC[C@]2(C)[C@H]3CC[C@]4(C)[C@@H](C(=O)N5CCOCC5)CC[C@H]4[C@@H]3CC[C@@H]12 | 5.6 | 7.25 |
| COC(=O)[C@H]1CC[C@H]2[C@@H]3CC[C@H]4NC(=O)CC[C@]4(C)[C@H]3CC[C@]12C | 42 | 6.38 |

Results, then the compound that gave them:

| Ratio IC50 (Homo sapiens [1]) | pIC50 (Homo sapiens [2]) | Compound |
| --- | --- | --- |
| 3.6 | 7.44 | CCN(CC)C(=O)[C@H]1CC[C@H]2[C@@H]3CC[C@H]4N(C)C(=O)[C@@H](C)C[C@]4(C)[C@H]3CC[C@]12C |
| 0.82 | 8.09 | CC(C)N(C(=O)[C@H]1CC[C@H]2[C@@H]3CC[C@H]4N(C)C(=O)CC[C@]4(C)[C@H]3CC[C@]12C)C(C)C |
| 2.7 | 7.57 | CC(C)CC(=O)[C@H]1CC[C@H]2[C@@H]3CC[C@H]4N(C)C(=O)CC[C@]4(C)[C@H]3CC[C@]12C |
| 27 | 6.57 | CCN(CC)C(=O)CC[C@@H](C)[C@H]1CC[C@H]2[C@@H]3CC[C@H]4N(C)C(=O)CC[C@]4(C)[C@H]3CC[C@]12C |
| 4 | 7.4 | CC(C)NC(=O)[C@H]1CC[C@H]2[C@@H]3CC[C@H]4N(C)C(=O)CC[C@]4(C)[C@H]3CC[C@]12C |
| 1.5 | 7.82 | CCN(CC)C(=O)/C=C1/CC[C@H]2[C@@H]3CC[C@H]4N(C)C(=O)CC[C@]4(C)[C@H]3CC[C@]12C |
| 1.3 | 7.89 | CCN(CC)C(=O)[C@H]1CC[C@H]2[C@@H]3CC[C@H]4N(C)C(=O)[C@@H]5C[C@@H]5[C@]4(C)[C@H]3CC[C@]12C |
| 9.4 | 7.03 | CCNC(=O)[C@H]1CC[C@H]2[C@@H]3CC[C@H]4N(C)C(=O)CC[C@]4(C)[C@H]3CC[C@]12C |
| 28 | 6.55 | CCN(CC)C(=O)[C@H]1CC[C@H]2[C@@H]3CC[C@H]4N(C)C(=O)C(OC)(OC)C[C@]4(C)[C@H]3CC[C@]12C |
| 1 | 8 | CCN(CC)C(=O)[C@H]1CC[C@H]2[C@@H]3CC[C@H]4N(C)C(=O)CC[C@]4(C)[C@H]3CC[C@]12C |
| 28 | 6.55 | CNC(=O)[C@H]1CC[C@H]2[C@@H]3CC[C@H]4N(C)C(=O)CC[C@]4(C)[C@H]3CC[C@]12C |
| 15 | 6.82 | CCN(CC)C(=O)[C@H]1CC[C@H]2[C@@H]3CC[C@H]4N(C)C(=O)[C@@H](OC)C[C@]4(C)[C@H]3CC[C@]12C |
| 47 | 6.33 | CN1C(=O)CC[C@]2(C)[C@H]3CC[C@]4(C)[C@@H](C(=O)SC(C)(C)C)CC[C@H]4[C@@H]3CC[C@@H]12 |
| 3 | 7.52 | CCN(CCO)C(=O)[C@H]1CC[C@H]2[C@@H]3CC[C@H]4N(C)C(=O)CC[C@]4(C)[C@H]3CC[C@]12C |
| 5 | 7.3 | CCN(CC)C(=O)[C@H]1CC[C@H]2[C@@H]3CC[C@H]4N(C)C(=O)[C@@H](F)C[C@]4(C)[C@H]3CC[C@]12C |
| 17 | 6.77 | COC(=O)[C@H]1CC[C@H]2[C@@H]3CC[C@H]4N(C)C(=O)CC[C@]4(C)[C@H]3CC[C@]12C |
| 2 | 7.7 | CCN(CC)C(=O)C[C@H]1CC[C@H]2[C@@H]3CC[C@H]4N(C)C(=O)CC[C@]4(C)[C@H]3CC[C@]12C |
| 1.2 | 7.92 | CCN(CC)C(=O)[C@H]1CC[C@H]2[C@@H]3CC[C@H]4NC(=O)CC[C@]4(C)[C@H]3CC[C@]12C |
| 2.4 | 7.62 | CCCCCNC(=O)[C@H]1CC[C@H]2[C@@H]3CC[C@H]4N(C)C(=O)CC[C@]4(C)[C@H]3CC[C@]12C |
| 27 | 6.57 | CC(=O)[C@H]1CC[C@H]2[C@@H]3CC[C@H]4N(C)C(=O)CC[C@]4(C)[C@H]3CC[C@]12C |
| 4 | 7.4 | CCC(C)C(=O)[C@H]1CC[C@H]2[C@@H]3CC[C@H]4NC(=O)CC[C@]4(C)[C@H]3CC[C@]12C (stereo not given in full) |
| 63 | 6.2 | CCN(CC)C(=O)[C@H]1CC[C@H]2[C@@H]3CC[C@H]4N(C)C(=O)[C@@H]5O[C@@H]5[C@]4(C)[C@H]3CC[C@]12C |
| 2 | 7.7 | CN1C(=O)CC[C@]2(C)[C@H]3CC[C@]4(C)[C@@H](C(=O)NC(C)(C)CO)CC[C@H]4[C@@H]3CC[C@@H]12 |
| 7 | 7.16 | CCN(CC)C(=O)[C@H]1CC[C@H]2[C@@H]3CC[C@H]4N(C)C(=O)C[C@H](C)[C@]4(C)[C@H]3CC[C@]12C |
| 390 | 5.41 | CCN(CC)C(=O)[C@@H](C)[C@H]1CC[C@H]2[C@@H]3CC[C@H]4N(C)C(=O)CC[C@]4(C)[C@H]3CC[C@]12C |
| 11 | 6.96 | CCN(CC)C(=O)CNC(=O)[C@H]1CC[C@H]2[C@@H]3CC[C@H]4N(C)C(=O)CC[C@]4(C)[C@H]3CC[C@]12C |
